From US5047398A, “DDAVP antidiuretic and method therefor” (Ferring B.V., priority 1983, dated 1991)
Like-named read-outs stand apart in the source and are kept apart here.

How the values were obtained:
[1] = tested on: healthy subjects; test: Water diuresis in overhydrated subjects after injection through a duodenal tube; type: in vivo, human; conditions: 200 micrograms in 10 ml water through duodenal tube, two subjects
Description: Two of the subjects were supplied with a duodenal tube which was inserted through the nose. The end of the tube was placed with the help of X-rays in the distal part of the duodenum. Overhydration and urine sampling were then carried out as described above. […] After this, 200 micrograms of DDAVP dissolved in 10 milliliters of water were injected through a tube.

[2] = in vivo; cited from earlier work
[3] = tested on: healthy subjects; type: in vivo, human
Description: Ten healthy subjects of both sexes, aged 18 through 43 were treated with DDAVP and 4-Asn-DDAVP.
One to two hours after a normal breakfast, the subjects were hydrated by drinking the volume of tap water that corresponded to 2% of their body weight. Every 15 minutes, urine was collected and its volume and osmolality were measured using an Advanced Osmometer Model 3D11. In order to overhydrate themselves, the subjects substituted their loss of fluid by drinking a volume of tap water that corresponded to the amount of urine collected. After about 40 to 45 minutes, the diuresis increased to about 200 milliliters per 15 minute period. At that time, DDAVP or 4-Asn-DDAVP in amounts of from 20 to 200 micrograms was administered perorally in 50 milliliters of distilled water. The DDAVP and 4-Asn-DDAVP were supplied by Ferring AB in lyophilized powder form which could easily be dissolved in water. The water diuresis was followed continually up to 6 hours.

Compound	antidiuretic response with increase in osmolality and conductivity of urine [1]	antidiuretic activity [2]	side-effects ([3]; human, in vivo)	therapeutic (antidiuretic) effect ([3]; peroral, 20 microgram dosage)	dose dependence of antidiuretic response (magnitude and duration) ([3]; peroral, 20 to 200 micrograms in 50 ml distilled water)	duration of antidiuretic effect ([3]; peroral, 20 to 200 micrograms, diuresis followed up to 6 hours)	therapeutic (antidiuretic) effect ([3]; oral, dose of 100 micrograms)	antidiuretic effect ([3]; oral, doses 20 to 200 micrograms, effect only with the highest dose)
NC(=O)CC[C@@H]1NC(=O)[C@H](Cc2ccccc2)NC(=O)[C@H](Cc2ccc(O)cc2)NC(=O)CCSSC[C@@H](C(=O)N2CCC[C@H]2C(=O)N[C@H](CCCN=C(N)N)C(=O)NCC(N)=O)NC(=O)[C@H](CC(N)=O)NC1=O [DDAVP, 1-deamino-8-D-arginine vasopressin]	immediate antidiuretic response	high and specific antidiuretic activity	no side-effects were experienced	therapeutic effect was obtained	dosedependent effect	at least 6 hours	–	–
1-deamino-4-asparagine-8-D-arginine-vasopressin [Example 4-Asn-DDAVP]	–	–	–	–	–	–	no therapeutic effect	only a moderate, extremely short-lived, effect
